# Test results as given in paper PMC5062570 (Nature Communications, 2016).
# Entries after “also recorded” stand apart in the source; their conditions may differ. Where two headings read alike, the source gives them in different places.
# Columns and labels:
# BACE2 = target: T1, BACE2 (Homo sapiens, UniProt Q9Y5Z0); test: BACE2 purified enzyme fluorescence polarization assay; type: biochemical; conditions: purified human enzyme, fluorescence polarization
# T1 construct: purchased R&D Systems 4097-AS
# T1 sequence (Q9Y5Z0 63-518): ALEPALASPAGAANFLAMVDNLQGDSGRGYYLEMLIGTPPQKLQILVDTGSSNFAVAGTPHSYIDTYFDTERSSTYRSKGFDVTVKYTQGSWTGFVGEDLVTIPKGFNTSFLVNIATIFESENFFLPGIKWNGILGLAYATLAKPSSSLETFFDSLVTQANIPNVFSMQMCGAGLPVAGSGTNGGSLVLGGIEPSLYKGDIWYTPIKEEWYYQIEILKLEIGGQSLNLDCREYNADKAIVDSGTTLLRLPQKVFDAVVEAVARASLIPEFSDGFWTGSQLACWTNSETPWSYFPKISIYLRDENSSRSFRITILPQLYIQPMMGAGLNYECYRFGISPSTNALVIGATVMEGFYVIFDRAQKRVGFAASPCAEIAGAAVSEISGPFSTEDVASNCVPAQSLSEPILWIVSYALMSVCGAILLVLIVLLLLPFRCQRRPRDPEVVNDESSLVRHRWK
# Method in brief: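 Purified enzymes incubated with compound (1% DMSO, 37 °C) and 150 nM biotinylated peptide substrate in 100 mM NaOAc pH 4.5. Reaction stopped with 1.5 μM streptavidin; inhibition read by fluorescence polarization. BACE2 0.5 nM, BACE1 substrate, 1 h; CatE 1.0 nM, CatD substrate, 1.5 h.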
# [1] = test system: retinal pigment epithelium (RPE); test: Exploratory toxicology, ocular toxicity by retinal histology in rats; type: in vivo; conditions: 14 days; for Female ocular toxicity incidence (positive or negative animals / total evaluated) / Female ocular toxicity outcome / Male ocular toxicity incidence (positive or negative animals / total evaluated) / Male ocular toxicity outcome: rat; for Retinal finding by fluorescence microscopy: rats
# Method: Wistar Han rats (obtained from Charles River, 125–300 g, 6–9 weeks old at study start, see Supplementary Table 7 for number of males and females) received daily oral dosing of test compounds or vehicle at the indicated concentrations for 7–29 days as indicated. The doses were prepared in a solution of 0.5% methylcellulose and 0.2% polysorbate 80, or 0.5% methylcellulose and hydroxypropyl methylcellulose acetate succinate (high fine grade) and delivered in a volume of 10 ml kg^−1 per day. Blood samples for bioanalytical analysis were collected in K2EDTA tubes via jugular vessel. Plasma was isolated after centrifugation and stored at −20 °C prior to analysis. Animals were given an additional dose the day after the end of the study (days 8, 15 or 30 for 7, 14 and 29 day studies, respectively) then killed by gas anaesthesia (isoflurane) followed by exsanguination ∼3 h after this final dose.
# CatE = conditions: purified aspartyl proteases; not previously disclosed
# [2] = test system: retinal pigment epithelium (RPE); test: Exploratory toxicology, ocular toxicity by retinal histology in dogs; type: in vivo; conditions: 14 days; for Female ocular toxicity incidence (positive or negative animals / total evaluated) / Female ocular toxicity outcome / Male ocular toxicity incidence (positive or negative animals / total evaluated) / Male ocular toxicity outcome: dog; for Retinal finding by fluorescence microscopy: dogs
# Method: (§1) Naive […] beagle dogs (Canis lupus familiaris, >8 months old, n=1 male and n=1 female per group) received daily oral dosing of test compounds or vehicle for 14 days at the indicated concentrations. The doses were prepared in a solution of 0.5% methylcellulose and hydroxypropyl methylcellulose acetate succinate (high fine grade) and delivered in a volume of 5 ml kg^−1 per day. Blood samples for bioanalytical analysis were collected in K2EDTA tubes via jugular vessel. Plasma was isolated after centrifugation and stored at –20 °C before analysis. Animals were killed via intravenous administration of barbiturate followed by exsanguination ∼3 h after the final dose on day 15.
# [3] = test system: mRNA levels (CTSD, CTSB, CTSF, BACE1, GBA, TFEB) in ARPE-19 cells; test: qRT-PCR of inhibitor-treated ARPE-19 cells; type: cell-based, human; conditions: 7 days
# [4] = Plasma exposure (average unbound plasma concentration) in dogs; type: in vivo; conditions: both sexes, beagle, oral, dog, read-out: Avg Cp,u parent
# Method: as §1
# Plasma samples were analysed after protein precipitation by treating 20 μl of sample matrix with 200 μl of acetonitrile containing internal standard. All samples were centrifuged at 3,000 r.p.m. for 5 min. Then 100 μl of supernatant was transferred to a clean plate and evaporated to dryness under N2. Samples were reconstituted in 200 μl of 80:20 (v:v) acetonitrile:water. Samples were analysed on Waters Acquity UPLC connected to AB Sciex API5500 QTrap MS/MS.
# Plasma protein binding was determined in the Rapid Equilibrium Device (RED, Thermo Scientific). […] Samples were protein-precipitated with acetonitrile containing internal standard, and the resulting supernatant was analysed by LC-MS/MS.
# CatD = conditions: cited from earlier work
# [5] = test system: retinal pigment epithelium (RPE); test: Ocular toxicity, retinal histology in wild-type and BACE1 knockout mice; conditions: 80 mg kg-1 daily; for WT ocular toxicity incidence (positive or negative animals / total evaluated) / WT ocular toxicity outcome: wild-type mice
# Method: All experiments and procedures involving animals were conducted as per the established guidelines and protocols that were reviewed and approved by the Pfizer Institutional Animal Care and Use Committee. […] Animals were housed at an Association for Assessment and Accreditation of Laboratory Animal Care International accredited facility in species-specific housing. Sample number was adequately powered for exploratory toxicology studies based on consistent internal practice. Clinically acceptable animals were selected for exploratory toxicology studies and assigned to groups using a computer-assisted randomization procedure based on body weights. For the fluorescent microscopic evaluation of the eyes, animals from the control group were initially evaluated in an unblinded fashion to provide the investigator an understanding of the baseline amount of autofluorescence typical for vehicle-treated animals in the study. A subsequent blinded evaluation of all animals in the study including controls was then performed to identify individuals that were outside the normal range established by the initial unblinded control group review.
# After fixation for a minimum of 2 days, each eye was sectioned in half along the mid-sagittal plane with one half being embedded cut side down in a paraffin wax block and the other half returned to fixative. Paraffin blocks were sectioned at 4–5 μm using a microtome and the resulting sections were placed on glass slides, stained with H&E and coverslipped.
smiles,measurement,setting,value
Cc1cc([C@H]2C[C@H]3[C@@H](CF)SC(N)=N[C@@]3(c3ccc(F)cc3F)CO2)on1 [PF-3195],IC50,BACE2,150 nM
same,Female ocular toxicity incidence (positive or negative animals / total evaluated),[1]; 15 mg kg-1 once daily,3/3
same,Female ocular toxicity outcome,[1]; 15 mg kg-1 once daily,Neg (negative (neg) if there was no ocular abnormality observed)
same,Male ocular toxicity incidence (positive or negative animals / total evaluated),[1]; 15 mg kg-1 once daily,3/3
same,Male ocular toxicity outcome,[1]; 15 mg kg-1 once daily,Neg (negative (neg) if there was no ocular abnormality observed)
same,Female ocular toxicity incidence (positive or negative animals / total evaluated),[1]; 40 mg kg-1 once daily,3/3
same,Female ocular toxicity outcome,[1]; 40 mg kg-1 once daily,Neg (negative (neg) if there was no ocular abnormality observed)
same,Male ocular toxicity incidence (positive or negative animals / total evaluated),[1]; 40 mg kg-1 once daily,3/3
same,Male ocular toxicity outcome,[1]; 40 mg kg-1 once daily,Neg (negative (neg) if there was no ocular abnormality observed)
same,Female ocular toxicity incidence (positive or negative animals / total evaluated),[1]; 90 mg kg-1 once daily,2/3
same,Female ocular toxicity outcome,[1]; 90 mg kg-1 once daily,Pos
same,Male ocular toxicity incidence (positive or negative animals / total evaluated),[1]; 90 mg kg-1 once daily,1/3
same,Male ocular toxicity outcome,[1]; 90 mg kg-1 once daily,Pos
same,Female ocular toxicity incidence (positive or negative animals / total evaluated),[1]; 200 mg kg-1 once daily,2/3
same,Female ocular toxicity outcome,[1]; 200 mg kg-1 once daily,Pos
same,Male ocular toxicity incidence (positive or negative animals / total evaluated),[1]; 200 mg kg-1 once daily,3/3
same,Male ocular toxicity outcome,[1]; 200 mg kg-1 once daily,Pos
same,Retinal finding by fluorescence microscopy,[1]; 15 mg kg-1 or 40 mg kg-1 daily,no intermediate phenotype
same,Retinal finding by fluorescence microscopy,[1]; 90 mg kg-1 or 200 mg kg-1 daily,accumulated autofluorescent granules
Cc1cc([C@H]2C[C@H]3[C@@H](C)SC(N)=N[C@@]3(c3ccc(F)cc3F)CO2)on1 [PF-9283],IC50,BACE2,140 nM
same,Female ocular toxicity incidence (positive or negative animals / total evaluated),[1]; 30 mg kg-1 once daily,1/3
same,Female ocular toxicity outcome,[1]; 30 mg kg-1 once daily,Pos
same,Male ocular toxicity incidence (positive or negative animals / total evaluated),[1]; 30 mg kg-1 once daily,3/3
same,Male ocular toxicity outcome,[1]; 30 mg kg-1 once daily,Neg (negative (neg) if there was no ocular abnormality observed)
same,Retinal finding by fluorescence microscopy,[1]; 80 mg kg-1 daily,accumulation of autofluorescent granules (AFG) in the RPE; also recorded: accumulated autofluorescent granules are visible
same,Fold selectivity for BACE1 over CatE,CatE,320 fold
same,Female ocular toxicity incidence (positive or negative animals / total evaluated),[2]; 3 mg kg-1 once daily,1/1
same,Female ocular toxicity outcome,[2]; 3 mg kg-1 once daily,Neg (negative (neg) if there was no ocular abnormality observed)
same,Male ocular toxicity incidence (positive or negative animals / total evaluated),[2]; 3 mg kg-1 once daily,1/1
same,Male ocular toxicity outcome,[2]; 3 mg kg-1 once daily,Neg (negative (neg) if there was no ocular abnormality observed)
same,Female ocular toxicity incidence (positive or negative animals / total evaluated),[2]; 9 mg kg-1 once daily,1/1
same,Female ocular toxicity outcome,[2]; 9 mg kg-1 once daily,Neg (negative (neg) if there was no ocular abnormality observed)
same,Male ocular toxicity incidence (positive or negative animals / total evaluated),[2]; 9 mg kg-1 once daily,1/1
same,Male ocular toxicity outcome,[2]; 9 mg kg-1 once daily,Pos
same,Retinal finding by fluorescence microscopy,[2]; 3 mg kg-1 daily,not after 3 mg kg-1 dosing
same,Retinal finding by fluorescence microscopy,[2]; 9 mg kg-1 daily,accumulated autofluorescent
same,mRNA level changes (qRT-PCR),[3],did not display changes in mRNA levels; also recorded: no changes in CatD mRNA levels
same,concentration at 14 days,[4]; 3 mg kg-1 once daily,32 nM
same,concentration at 14 days,[4]; 9 mg kg-1 once daily,401 nM
same,selectivity ratio,CatD,210
same,BACE1(-/-) ocular toxicity incidence (positive or negative animals / total evaluated),"[5]; BACE1(-/-) mice, 14 days",4/5
same,BACE1(-/-) ocular toxicity outcome,"[5]; BACE1(-/-) mice, 14 days",Pos
same,Retinal finding by fluorescence microscopy,"[5]; BACE1(-/-) mice, 14 days",accumulated autofluorescent granules were observed
same,BACE1(-/-) ocular toxicity incidence (positive or negative animals / total evaluated),"[5]; BACE1(-/-) mice, 30 days",6/6
same,BACE1(-/-) ocular toxicity outcome,"[5]; BACE1(-/-) mice, 30 days",Pos
same,WT ocular toxicity incidence (positive or negative animals / total evaluated),[5]; 2 days,5/5
same,WT ocular toxicity outcome,[5]; 2 days,Neg
same,WT ocular toxicity incidence (positive or negative animals / total evaluated),[5]; 4 days,1/5
same,WT ocular toxicity outcome,[5]; 4 days,Pos
same,WT ocular toxicity incidence (positive or negative animals / total evaluated),[5]; 7 days,6/6
same,WT ocular toxicity outcome,[5]; 7 days,Pos
same,WT ocular toxicity incidence (positive or negative animals / total evaluated),[5]; 14 days,5/5
same,WT ocular toxicity outcome,[5]; 14 days,Pos
same,WT ocular toxicity incidence (positive or negative animals / total evaluated),[5]; 30 days,6/6
same,WT ocular toxicity outcome,[5]; 30 days,Pos
